We go through nine compounds from patent US5166208A, “Fredericamycin A derivatives” (Boston College, priority 1991, dated 1992).

The structures appear in SMILES notation. Values after ≈ are worked out from the molar mass of the structure shown. Where a name gives a salt, the structure may show the parent alone. Read-outs that look alike come from different tables or passages of the source. Where only a bound is given, the exact number is not on record here.

In one series the test system is p388 murine leukemia. Briefly: In vivo activity against p388 murine leukemia in an acute mouse model. The settings on record: for AWC (average weight change per mouse): before treatment to day five. The protocol:
CDF1 mice of both sexes weighing between 16 and 25 gm. were used, with a 2 gm. weight range and same sex and source used per experiment. BDF1 mice also were used with the same weight, sex and source parameters. Control and test animals were injected interperitoneally with suspension of 1×10^6 p388 murine leukemia cells (0.5 mL dose) on day 0. Groups of 4-6 mice were used for each dosage amount they were treated with 5 doses on day one. A group of ten saline treated control mice was included in each set of experiments. A 30 day protocol was employed with mean survival time in days being determined for each group of mice with the number of survivors at the end of the 30 day period being noted. The mice were weighed before treatment and again on day five. The values listed for average weight change (AWC) is the average weight change per mouse at the specified dose. The change in weight was taken as a measure of drug toxicity. A loss in weight of up to 2 grams is not considered excessive. The results were determined in terms of % T/C which is the ratio of the mean survival time of the treated group to the mean survival time of the saline treated group times 100.

For series [1], the system named is human colon tumor (HCT116). Description: In vitro microdilution inhibition, HCT116. As to conditions: HCT-116, 72 hours, 50% of cells killed. It counts as cell-based. The source says:
(§1) As shown in Table III the compounds of the present invention exert an in vitro antitumor effect. The following cells lines were employed: human lung (A549); resistant human lung with low topo II activity (A549-VP); murine melanoma (B16); human colon tumor (HCT116); human colon tumor with elevated p170 levels (HCTVM); human colon tumor with low topo II activity (HCTVP); and another human colon carcinoma cell line (Moser). In the Table, the designation "NT" indicates the compound was not tested against the specified cell line. The cell lines were maintained in continuous culture at 37°, 5% CO2 and high humidity. Cells were harvested in log phase growth and suspended at concentration of 25,000 cells/mL. A […] aliquot was then added to each well (i.e., 3,750 cells per well) of a 96-well flat bottom plate and the cells were allowed to attach over a 24 hour period. After this 24 hour incubation, a 50 μL sample of the specified compound was added to the first (top) well of each column, and the remaining wells of each column serially diluted, 1:4, and allowed to incubate for 72 hours at 37° C., 5% CO2 and high humidity. Following incubation, 50 μL of freshly prepared stain solution was added to each well. After a 3 hour incubation at room temperature, absorbance was read at 450 nm on a microplate reader to determine the compound concentration at which 50% of the cells were killed, such concentration referred to as the "IC50 ".

The next series has as its system human lung (A549). Briefly: In vitro microdilution inhibition, human lung A549. Format: cell-based. As to conditions: A549, 72 hours, 50% of cells killed.
Text: as §1

Series [2] concerns human colon tumor with low topo II activity (HCTVP). Briefly: In vitro microdilution inhibition, HCTVP. As to conditions: 72 hours, 50% of cells killed. Format: cell-based.
Text: as §1
(In general: In broth dilution the organism is exposed to a series of concentrations in liquid medium.)

Series [3] relates to human colon carcinoma cell line (Moser). Briefly: In vitro microdilution inhibition, Moser. Format: cell-based. The settings on record: 72 hours, 50% of cells killed.
Text: as §1

The next series deals with murine melanoma (B16). Briefly: In vitro microdilution inhibition, B16. It counts as cell-based. As to conditions: Mus musculus; B16, 72 hours, 50% of cells killed.
Text: as §1

In series [4] the test system is resistant human lung with low topo II activity (A549-VP). Briefly: In vitro microdilution inhibition, resistant human lung A549-VP. Format: cell-based. The settings on record: A549VP, 72 hours, 50% of cells killed.
Text: as §1

The subject of series [5] is human colon tumor with elevated p170 levels (HCTVM). Description: In vitro microdilution inhibition, HCTVM. It counts as cell-based. As to conditions: 72 hours, 50% of cells killed.
Text: as §1

In another series the test system is L1210 mouse leukemia. The settings on record: in vitro; cited from earlier work.
The next series concerns p388 mouse leukemia. As to conditions: in vitro; cited from earlier work.

As to `COCOc1cccc2c1C1(CC2)C(=O)c2c(O)c3c(c(O)c2C1=O)C(=O)C=CC3=O` [Example 2, 2',3'-Dihydro-7'-(methoxymethoxy)-1H-indene-1'-spiro-2-[4,9-dihydroxy-2H-benz[f]indene-1,3,5,8-tetrone]], the “AWC (average weight change per mouse)” value in the series with p388 murine leukemia (CDF1 (mixed sex), 5 mg/kg) is on record as -0.1; in the series on p388 murine leukemia (CDF1 (mixed sex), 15 mg/kg), -1.3. Also, the “% T/C (mean survival time treated/control)” value with p388 murine leukemia (CDF1 (mixed sex), 45 mg/kg) was “Toxic”. Also, the response vs control in vivo at 5 mg/kg with p388 murine leukemia (Mus musculus, P388, 720 h, CDF1 (mixed sex), 5 mg/kg, read-out: % T/C (mean survival time treated/control)) was 105%. In addition, the response vs control in vivo at 15 mg/kg in the series on p388 murine leukemia (Mus musculus, P388, 720 h, CDF1 (mixed sex), 15 mg/kg, read-out: % T/C (mean survival time treated/control)) stood at 110%. The IC50 – broadly, the concentration that inhibits the measured activity by half – in series [1] is 0.25 mg/L (≈ 0.595 µM); with human lung (A549), 0.36 mg/L (≈ 0.856 µM); in series [2] it was 0.29 mg/L (≈ 0.69 µM); in series [3], 1.07 mg/L (≈ 2.55 µM); in the series with murine melanoma (B16), 0.14 mg/L (≈ 0.333 µM).

In the case of `O=C1C=CC(=O)c2c(O)c3c(c(O)c21)C(=O)C1(CCc2cccc(O)c21)C3=O` [Example 3, 2',3'-Dihydro-7'-hydroxy-1H-indene-1'-spiro-2-[4,9-dihydroxy-benz[f]indene-1,3,5,8-tetrone]], the concentration for half-maximal inhibition (IC50) came to 1.13 mg/L (≈ 3 µM) in [1]; 1.14 mg/L (≈ 3.03 µM) in the series with human lung (A549); 0.86 mg/L (≈ 2.29 µM) in [2]; 3.07 mg/L (≈ 8.16 µM) in series [3]; 0.88 mg/L (≈ 2.34 µM) in the series on murine melanoma (B16).

As to `CCCCCc1cc2cc3c(c(OCOC)c2c(OC)n1)C1(CC3)C(=O)c2c(O)c3c(c(O)c2C1=O)C(=O)C=CC3=O` [Example 7, 6',7'-Dihydro-1-methoxy-9'-(methoxymethoxy)-3'-(n-pentyl)-spiro[2H-benz[f]indene-2,8'-[8H]cyclopent[g]isoquinoline]-1,3,5,8-tetrone], the “AWC (average weight change per mouse)” value in the series with p388 murine leukemia (CDF1 (female only), 5 mg/kg) is reported as -2.8; in the series with p388 murine leukemia (CDF1 (female only), 15 mg/kg) it was -3.8. Moreover, the “% T/C (mean survival time treated/control)” value with p388 murine leukemia (CDF1 (female only), 45 mg/kg) is on record as “Toxic”. In addition, the response vs control in vivo at 5 mg/kg in the series on p388 murine leukemia (Mus musculus, P388, 720 h, CDF1 (female only), 5 mg/kg, read-out: % T/C (mean survival time treated/control)) was determined as 150%. Besides, the response vs control in vivo at 15 mg/kg with p388 murine leukemia (Mus musculus, P388, 720 h, CDF1 (female only), 15 mg/kg, read-out: % T/C (mean survival time treated/control)) is 150%. The IC50 in series [1] stood at 1.2 mg/L (≈ 2.1 µM); with human lung (A549) it was 5 mg/L (≈ 8.75 µM); in series [2] it was 1.2 mg/L (≈ 2.1 µM); in [3] it was 5.9 mg/L (≈ 10.3 µM); in series [4], 8.5 mg/L (≈ 14.9 µM); in the series with murine melanoma (B16), 7 mg/L (≈ 12.2 µM).

For `CCCCCc1cc2cc3c(c(O)c2c(=O)[nH]1)C1(CC3)C(=O)c2c(O)c3c(c(O)c2C1=O)C(=O)C=CC3=O` [Example 8, 2',6',7'-Trihydro-4,9,9'-trihydroxy-3'-(n-pentyl)-spiro[2H-benz[f]-indene-2,8'-[8H]cyclopent[g]isoquinoline]-1,1',3,5,8-pentone], the “AWC (average weight change per mouse)” value was 1.0 in the series on p388 murine leukemia (BDF1 (female only), 5 mg/kg); -1.5 in the series on p388 murine leukemia (BDF1 (female only), 15 mg/kg); -2.8 in the series on p388 murine leukemia (BDF1 (female only), 45 mg/kg). Besides, the response vs control in vivo at 5 mg/kg with p388 murine leukemia (Mus musculus, P388, 720 h, BDF1 (female only), 5 mg/kg, read-out: % T/C (mean survival time treated/control)) is 125%. The response vs control in vivo at 15 mg/kg with p388 murine leukemia (Mus musculus, P388, 720 h, BDF1 (female only), 15 mg/kg, read-out: % T/C (mean survival time treated/control)) came to 135%. Further, in the series on p388 murine leukemia (Mus musculus, P388, 720 h, BDF1 (female only), 45 mg/kg, read-out: % T/C (mean survival time treated/control)), the response vs control in vivo at 45 mg/kg came out at 145%. Further, the IC50 is 14.5 mg/L (≈ 28.2 µM) in series [1]; 24.5 mg/L (≈ 47.7 µM) in the series on human lung (A549); 18.3 mg/L (≈ 35.6 µM) in series [3]; 26.5 mg/L (≈ 51.6 µM) in series [4]; 18 mg/L (≈ 35.1 µM) in the series on murine melanoma (B16).

On to `CCOC(OCC)c1cc2cc3c(c(OCOC)c2c(OC)n1)C1(CC3)C(=O)c2c(O)c3c(c(O)c2C1=O)C(=O)C=CC3=O` [Example 9, 6',7'-Dihydro-1-methoxy-9'-(methoxymethoxy-3-(diethoxymethyl)-spiro[2H-benz[f]indene-2,8'-8H]cyclopent[g]isoquinoline]-1,3,5,8-tetrone], for which the 50% inhibitory concentration (IC50) amounted to 0.71 mg/L (≈ 1.18 µM) in [1]; 4.42 mg/L (≈ 7.32 µM) with human lung (A549); 2.38 mg/L (≈ 3.94 µM) in series [2]; 4.4 mg/L (≈ 7.29 µM) in series [3]; 0.78 mg/L (≈ 1.29 µM) with murine melanoma (B16).

In the case of `CNC1=CC(=O)c2c(O)c3c(c(O)c2C1=O)C(=O)C1(CCc2cccc(OCOC)c21)C3=O` (stereo not shown) [Example 12, 2',3'-Dihydro-6-methylamino-7'-(methoxymethoxy)-1H-indene-1'-spiro-2-[4,9-dihydroxy-2H-benz[f]-indene-1,3,5,8-tetrone]], the IC50 in [1] was 0.03 mg/L (≈ 0.0668 µM); in series [5], 0.05 mg/L (≈ 0.111 µM); in the series on human lung (A549) it was below 0.03 mg/L; in series [2] it was 0.03 mg/L (≈ 0.0668 µM); in series [3] it was 0.03 mg/L (≈ 0.0668 µM); in series [4] it was 0.05 mg/L (≈ 0.111 µM). In the series with murine melanoma (B16), this compound yielded an IC50 of 0.03 mg/L (≈ 0.0668 µM).

For the compound `COCOc1cccc2c1C1(CC2)C(=O)c2c(O)c3c(c(O)c2C1=O)C(=O)C(Nc1cccc(C(=O)O)c1)=CC3=O` (stereo not shown) [Example 20, 2',3'-Dihydro-7'-(methoxymethoxy)-1H-indene-1,-spiro-2-[6-(3-carboxyanilino)-4,9-dihydroxy-2H-benz[f]indene-1,2,5,8-tetrone]], the half-maximal inhibitory concentration (IC50) (in series [1]; in series [5]; in the series on human lung (A549); in series [2]; in [3]; in [4]) was above 16 mg/L throughout. Also, the IC50 with murine melanoma (B16) is above 16 mg/L.

Consider `CCCCCc1cc2cc3c(c(O)c2c(=O)[nH]1)C1(CC3)C(=O)c2c(O)c3c(c(O)c2C1=O)C(=O)C(NCCN(C)C)=CC3=O` (stereo not shown) [Example 25, hydrochloride], for which the “AWC (average weight change per mouse)” value in the series on p388 murine leukemia (CDF1 (female only), 4 mg/kg) is reported as 0.9; with p388 murine leukemia (CDF1 (female only), 12 mg/kg), -0.7; in the series on p388 murine leukemia (CDF1 (female only), 36 mg/kg) it was -1.6. Moreover, the response vs control in vivo at 4 mg/kg with p388 murine leukemia (Mus musculus, P388, 720 h, CDF1 (female only), 4 mg/kg, read-out: % T/C (mean survival time treated/control)) came to 125%. In addition, in the series with p388 murine leukemia (Mus musculus, P388, 720 h, CDF1 (female only), 12 mg/kg, read-out: % T/C (mean survival time treated/control)), the response vs control in vivo at 12 mg/kg is 105%. Further, in the series with p388 murine leukemia (Mus musculus, P388, 720 h, CDF1 (female only), 36 mg/kg, read-out: % T/C (mean survival time treated/control)), the response vs control in vivo at 36 mg/kg is 120%. In addition, the IC50 in [1] was determined as 0.27 mg/L; in [5], 0.22 mg/L; in the series on human lung (A549) it was 0.14 mg/L; in series [2], 0.13 mg/L; in series [4], 0.16 mg/L; with murine melanoma (B16), 0.14 mg/L.

Consider `C/C=C/C=C/c1cc2cc3c(c(O)c2c(=O)[nH]1)C1(CC3)C(=O)c2c(O)c3c(c(O)c2C1=O)C(=O)C(OC)=CC3=O` (stereo not shown) [fredericamycin A], for which the cytotoxicity entry in the series on L1210 mouse leukemia was “comparable to doxorubicin and actinomycin”; in the series with p388 mouse leukemia, “comparable to doxorubicin and actinomycin”.
